Assay results taken from patent publication US11478466B2, “Small molecule promoting osteoblast differentiation” (Cornell University, priority 2019, dated 2022).
Where two headings read alike, the source gives them in different places.

Key:
[1] = tested on: alkaline phosphatase (ALP); assay: cells; details: Mus musculus; for activation at 10 µM: C2C12, 96 h
[2] = tested on: alkaline phosphatase (ALP); details: 10 μM; for RFU Score (10 μM): 154-analog library, C2C12, duplicate; for RFU Score Threshold ≥ 800: Ex 450/Em 580 nm, rank in brackets not taken; for Fluorescence Z Score Threshold ≥ 10: Z score on DMSO control wells
[3] = read-out: NPA Score Threshold ≥ 5.0 (normalized percent activation)

## Cc1cc(C)c2[nH]c(=O)c(CN(C)Cc3cc(-c4cccnc4)no3)cc2c1 [RU-0424469]
[1]
  activation at 10 µM: 8.96%
[2]
  RFU Score (10 μM): 536

## OCc1ccc(CN2CCCC(COc3ccccc3F)C2)o1 (stereo not drawn) [RU-0229103]
[1]; [3]
  activation at 10 µM: 6.82%
[2]; primary screen, C2C12, 4 days
  RFU Score Threshold ≥ 800: 1980 (2)
  Fluorescence Z Score Threshold ≥ 10: 46.85 (2)

## NS(=O)(=O)CC1CCN(C(=O)c2[nH]cnc2-c2ccccc2)C1 (stereo not drawn) [RU-0424556]
[1]
  activation at 10 µM: 5.4%
[2]
  RFU Score (10 μM): 435

## CO[C@H]1CN(Cc2cccc(Cl)c2Cl)CC[C@H]1N [RU-0221236]
[1]; [3]
  activation at 10 µM: 5.13%
[2]; primary screen, C2C12, 4 days
  RFU Score Threshold ≥ 800: Below Threshold
  Fluorescence Z Score Threshold ≥ 10: Below Threshold

## CN(C)CCC1CN(C(=O)c2[nH]cnc2-c2ccccc2)CCO1 (stereo not drawn) [RU-0231240]
[1]
  activation at 10 µM: 11.1%
[2]
  RFU Score (10 μM): 596

## Cc1cc(C)c2[nH]c(=O)c(C3CC(=O)NCc4nc5ccccn5c43)cc2c1 (stereo not drawn) [RU-0424462]
[1]
  activation at 10 µM: 7.81%
[2]
  RFU Score (10 μM): 503

## COc1ccc(-c2[nH]nnc2-c2ccccc2)cc1Cn1cncn1 [RU-0262240]
[1]
  activation at 10 µM: 7.55%
[2]
  RFU Score (10 μM): 496

## CCCn1cc(NC(=O)Cn2cc(-c3[nH]cnc3-c3ccccc3)cn2)nn1 [RU-0424514]
[1]
  activation at 10 µM: 3.69%
[2]
  RFU Score (10 μM): 386

## CCc1cnc(C)nc1N1CCCC(Cc2cccnc2)C1 (stereo not drawn) [RU-0238003, 5-ethyl-2-methyl-4-[3-(pyridin-3-ylmethyl)piperidin-1-yl]pyrimidine]
[1]; C2C12, read-out: Measured EC50
  EC50: > 40 µM
[2]; primary screen, C2C12, 4 days
  RFU Score Threshold ≥ 800: 1340 (3)
  Fluorescence Z Score Threshold ≥ 10: 36.44 (3)
[2]; primary screen, C2C12, 4 days, normalized against rhBMP4 positive and DMSO negative controls
  NPA Score Threshold ≥ 5.0 (normalized percent activation): Below Threshold

## O=C(c1[nH]cnc1-c1ccccc1)N1CCOC(c2ccc(Cl)cc2)C1 (stereo not drawn) [RU-0261164]
[1]
  activation at 10 µM: 9.24%
[2]
  RFU Score (10 μM): 544

## O=C(c1[nH]cnc1-c1ccccc1)N1CCC(Oc2ccccc2)C1 (stereo not drawn) [RU-0424523]
[1]
  activation at 10 µM: 4.84%
[2]
  RFU Score (10 μM): 419

## Cc1cc(C)c2[nH]c(=O)c(-c3nccn3CCSc3cnn[nH]3)cc2c1 [RU-0424492]
[1]
  activation at 10 µM: 6.11%
[2]
  RFU Score (10 μM): 455

## c1cc2c(cc1NC1CCCNC1)OCCO2 (stereo not drawn) [RU-0256394]
[1]; [3]
  activation at 10 µM: 5.87%
[2]; primary screen, C2C12, 4 days
  RFU Score Threshold ≥ 800: Below Threshold
  Fluorescence Z Score Threshold ≥ 10: Below Threshold

## Cc1cc(C)c2[nH]c(=O)c(CN(C)Cc3c(C)noc3C)cc2c1 [RU-0259020]
[1]
  activation at 10 µM: 8.18%
[2]
  RFU Score (10 μM): 514

## O=C(c1[nH]cnc1-c1ccccc1)N1C[C@H](O)[C@@H](N2CCOCC2)C1 [RU-0268325]
[1]
  activation at 10 µM: 2.04%
[2]
  RFU Score (10 μM): 339

## O=C(NC1CC(=O)N(CCc2ccccc2)C1)c1[nH]cnc1-c1ccccc1 (stereo not drawn) [RU-0252250]
[1]
  activation at 10 µM: 8.85%
[2]
  RFU Score (10 μM): 533

## COCCCN1CCN(Cc2cc3cc(C)cc(C)c3[nH]c2=O)CC1 [RU-0424502]
[1]
  activation at 10 µM: 7.78%
[2]
  RFU Score (10 μM): 502

## CC1(C#N)CCN(C(=O)c2ccc(-c3[nH]cnc3-c3ccccc3)cc2)CC1 [RU-0424493]
[1]
  activation at 10 µM: 9.53%
[2]
  RFU Score (10 μM): 551

## Cc1cc(C)c2[nH]c(=O)c(CN3CCCC[C@H](N(C)C)C3)cc2c1 [RU-0424530]
[1]
  activation at 10 µM: 8.55%
[2]
  RFU Score (10 μM): 524

## Cc1nc(C2CCCN(C(=O)c3[nH]cnc3-c3ccccc3)C2)no1 (stereo not drawn) [RU-0424484]
[1]
  activation at 10 µM: 1.72%
[2]
  RFU Score (10 μM): 330

## O=C(O)CNc1cc(-c2[nH]cnc2-c2ccccc2)c2cc[nH]c2n1 [RU-0424497]
[1]
  activation at 10 µM: 5.93%
[2]
  RFU Score (10 μM): 450

## O=C1NCC2(CCCN(C(=O)c3[nH]cnc3-c3ccccc3)C2)O1 (stereo not drawn) [RU-0264094]
[1]
  activation at 10 µM: 10.6%
[2]
  RFU Score (10 μM): 583

## O=C(O)Cc1cc(C2CCN(C(=O)c3[nH]cnc3-c3ccccc3)CC2)[nH]n1 [RU-0424481]
[1]
  activation at 10 µM: 8.62%
[2]
  RFU Score (10 μM): 526

## CCc1ncc2c(n1)CN(C(=O)c1[nH]cnc1-c1ccccc1)C2 [RU-0237095]
[1]
  activation at 10 µM: 6.04%
[2]
  RFU Score (10 μM): 453

## c1ccc(-c2nc[nH]c2-c2ccc(OCCn3ccnc3)cc2)cc1 [RU-0249817]
[1]
  activation at 10 µM: 9.84%
[2]
  RFU Score (10 μM): 561

## COc1cc2c(cc1O)NC(=O)CC2c1cc2cc(C)cc(C)c2[nH]c1=O (stereo not drawn) [RU-0424557]
[1]
  activation at 10 µM: 5.24%
[2]
  RFU Score (10 μM): 430

## O=C(O)C1CN(C(=O)c2[nH]cnc2-c2ccccc2)CCN1 (stereo not drawn) [RU-0424486]
[1]
  activation at 10 µM: 5.51%
[2]
  RFU Score (10 μM): 438

## Cc1cc(C)c2[nH]c(=O)c(CN3CCCC4(C3)CN(C)C(=O)O4)cc2c1 (stereo not drawn) [RU-0424471]
[1]
  activation at 10 µM: 8.55%
[2]
  RFU Score (10 μM): 524

## Cc1ccccc1OCCCN(C)c1nc(-c2cccnc2)nc2c1CNC2 [RU-0231961]
[1]; [3]
  activation at 10 µM: 5.5%
[2]; primary screen, C2C12, 4 days
  RFU Score Threshold ≥ 800: Below Threshold
  Fluorescence Z Score Threshold ≥ 10: Below Threshold

## CC(C)N1CCC(SCc2ccc(F)cc2C#N)C1=O (stereo not drawn) [RU-0201425]
[1]; [3]
  activation at 10 µM: 5.69%
[2]; primary screen, C2C12, 4 days
  RFU Score Threshold ≥ 800: Below Threshold
  Fluorescence Z Score Threshold ≥ 10: Below Threshold

## CCCN(C)CC1CCN(C(C)C(=O)Nc2ccc(C(F)(F)F)cc2)C1 (stereo not drawn) [RU-0219355]
[1]; [3]
  activation at 10 µM: 6.14%
[2]; primary screen, C2C12, 4 days
  RFU Score Threshold ≥ 800: 819 (28)
  Fluorescence Z Score Threshold ≥ 10: Below Threshold

## Cc1cc(C)c2[nH]c(=O)c(CN(C)Cc3cnccn3)cc2c1 [RU-0424510]
[1]
  activation at 10 µM: 7.14%
[2]
  RFU Score (10 μM): 484

## Cc1cc(C)c2[nH]c(=O)c(CN(C)CCc3cnn(C)c3)cc2c1 [RU-0424515]
[1]
  activation at 10 µM: 1.16%
[2]
  RFU Score (10 μM): 314

## CNC(=O)[C@@H]1C[C@@H](N)CN1Cc1cc2cc(C)cc(C)c2[nH]c1=O [RU-0424537]
[1]
  activation at 10 µM: 8.16%
[2]
  RFU Score (10 μM): 513

## C=CCc1cc(-c2[nH]cnc2-c2ccccc2)cc(OC)c1O [RU-0248392]
[1]
  activation at 10 µM: 4.98%
[2]
  RFU Score (10 μM): 423

## O=C(c1[nH]cnc1-c1ccccc1)N1CCc2onc(-c3ccccc3)c2C1 [RU-0424446]
[1]
  activation at 10 µM: 1.54%
[2]
  RFU Score (10 μM): 325

## Cc1cc(C)c2[nH]c(=O)c(CN3CCC(NS(C)(=O)=O)CC3)cc2c1 [RU-0424553]
[1]
  activation at 10 µM: 6.08%
[2]
  RFU Score (10 μM): 454

## O=C1OCC2(CCN(C(=O)c3[nH]cnc3-c3ccccc3)CC2)O1 [RU-0424470]
[1]
  activation at 10 µM: 7.58%
[2]
  RFU Score (10 μM): 497

## Cc1cc(C)c2[nH]c(=O)c(CN3CCc4[nH]cnc4C3C(=O)O)cc2c1 (stereo not drawn) [RU-0424488]
[1]
  activation at 10 µM: 6.37%
[2]
  RFU Score (10 μM): 462

## Cc1cc(C)c2[nH]c(=O)c(CN3CCN(Cc4noc(C)n4)CC3)cc2c1 [RU-0424525]
[1]
  activation at 10 µM: 9.94%
[2]
  RFU Score (10 μM): 563

## Cc1cc(C)c2[nH]c(=O)c(-c3nccn3CCCN(C)C)cc2c1 [RU-0424539]
[1]
  activation at 10 µM: 10%
[2]
  RFU Score (10 μM): 565

## CCN(CCN(C)C)C(=O)c1cccc(-c2[nH]cnc2-c2ccccc2)c1 [RU-0424479]
[1]
  activation at 10 µM: 8.57%
[2]
  RFU Score (10 μM): 525

## CCc1cn[nH]c1C1CCN(C(=O)c2[nH]cnc2-c2ccccc2)CC1 [RU-0424485]
[1]
  activation at 10 µM: 8.24%
[2]
  RFU Score (10 μM): 515

## Cc1nc2cc(-c3cccc4ccnn34)ccc2s1 [RU-0239646]
[1]; [3]
  activation at 10 µM: 5.22%
[2]; primary screen, C2C12, 4 days
  RFU Score Threshold ≥ 800: Below Threshold
  Fluorescence Z Score Threshold ≥ 10: Below Threshold

## CN1CCN(C(=O)c2[nH]cnc2-c2ccccc2)CC1C(=O)O (stereo not drawn) [RU-0424442]
[1]
  activation at 10 µM: 0.18%
[2]
  RFU Score (10 μM): 287
